According to ChEMBL document CHEMBL1697731, “Cheminformatics analysis of assertions mined from literature that describe drug-induced liver injury in different species” (Chem Res Toxicol, 2010):

Legend:
[1] = system: Hepatotoxicity; assay: Literature-mined compound from Fourches et al multi-species drug-induced liver injury (DILI) dataset, effect in humans; details: human
[2] = system: Hepatotoxicity; assay: Literature-mined compound from Fourches et al multi-species drug-induced liver injury (DILI) dataset, effect in rodents; details: rodentia
[3] = system: Hepatotoxicity; assay: Literature-mined compound from Fourches et al multi-species drug-induced liver injury (DILI) dataset, effect in non-rodents

## CCCCC(=O)O[C@H]1CC[C@H]2[C@@H]3CCc4cc(O)ccc4[C@H]3CC[C@]12C [ESTRADIOL VALERATE]
[1]
  Hepatotoxicity: no drug-induced liver injury reported
[2]
  Hepatotoxicity: drug-induced liver injury reported
[3]
  Hepatotoxicity: no drug-induced liver injury reported

## C[C@]12CC[C@@H]3c4ccc(O)cc4CC[C@H]3[C@@H]1CC[C@@H]2O [ESTRADIOL]
[1]
  Hepatotoxicity: drug-induced liver injury reported
[2]
  Hepatotoxicity: drug-induced liver injury reported
[3]
  Hepatotoxicity: drug-induced liver injury reported

## C[C@]12CC[C@@H]3c4ccc(OC(=O)N(CCCl)CCCl)cc4CC[C@H]3[C@@H]1CC[C@@H]2O [ESTRAMUSTINE]
[1]
  Hepatotoxicity: drug-induced liver injury reported
[2]
  Hepatotoxicity: no drug-induced liver injury reported
[3]
  Hepatotoxicity: no drug-induced liver injury reported

## C[C@]12CC[C@@H]3c4ccc(O)cc4CC[C@H]3[C@@H]1C[C@@H](O)[C@@H]2O [ESTRIOL]
[1]
  Hepatotoxicity: no drug-induced liver injury reported
[2]
  Hepatotoxicity: drug-induced liver injury reported
[3]
  Hepatotoxicity: no drug-induced liver injury reported

## C[C@]12CC[C@@H]3c4ccc(OS(=O)(=O)O)cc4CC[C@H]3[C@@H]1CCC2=O [ESTRONE SULFURIC ACID]
[1]
  Hepatotoxicity: no drug-induced liver injury reported
[2]
  Hepatotoxicity: drug-induced liver injury reported
[3]
  Hepatotoxicity: no drug-induced liver injury reported

## C[C@]12CC[C@@H]3c4ccc(O)cc4CC[C@H]3[C@@H]1CCC2=O [ESTRONE]
[1]
  Hepatotoxicity: drug-induced liver injury reported
[2]
  Hepatotoxicity: drug-induced liver injury reported
[3]
  Hepatotoxicity: no drug-induced liver injury reported

## C=C(CC)C(=O)c1ccc(OCC(=O)O)c(Cl)c1Cl [ETHACRYNIC ACID]
[1]
  Hepatotoxicity: no drug-induced liver injury reported
[2]
  Hepatotoxicity: drug-induced liver injury reported
[3]
  Hepatotoxicity: drug-induced liver injury reported

## C#C[C@]1(O)CC[C@H]2[C@@H]3CCc4cc(O)ccc4[C@H]3CC[C@@]21C [ETHINYL ESTRADIOL]
[1]
  Hepatotoxicity: drug-induced liver injury reported
[2]
  Hepatotoxicity: drug-induced liver injury reported
[3]
  Hepatotoxicity: drug-induced liver injury reported

## CCc1cc(C(N)=S)ccn1 [ETHIONAMIDE]
[1]; Liver
  Hepatotoxicity: drug-induced liver injury reported
[2]; Liver
  Hepatotoxicity: drug-induced liver injury reported
[3]; Liver
  Hepatotoxicity: no drug-induced liver injury reported

## CCOc1ccc2nc(S(N)(=O)=O)sc2c1 [ETHOXZOLAMIDE]
[1]
  Hepatotoxicity: no drug-induced liver injury reported
[2]
  Hepatotoxicity: drug-induced liver injury reported
[3]
  Hepatotoxicity: no drug-induced liver injury reported

## CCc1cccc2c3c([nH]c12)C(CC)(CC(=O)O)OCC3 (stereo unspecified) [ETODOLAC]
[1]
  Hepatotoxicity: drug-induced liver injury reported
[2]
  Hepatotoxicity: drug-induced liver injury reported
[3]
  Hepatotoxicity: no drug-induced liver injury reported

## CCOC(=O)c1cncn1[C@H](C)c1ccccc1 [ETOMIDATE]
[1]
  Hepatotoxicity: drug-induced liver injury reported
[2]
  Hepatotoxicity: drug-induced liver injury reported
[3]
  Hepatotoxicity: no drug-induced liver injury reported

## CCOC(=O)[C@@]1(CCCCCCOc2ccc(Cl)cc2)CO1 [ETOMOXIR]
[1]
  Hepatotoxicity: drug-induced liver injury reported
[2]
  Hepatotoxicity: drug-induced liver injury reported
[3]
  Hepatotoxicity: drug-induced liver injury reported

## COc1cc([C@@H]2c3cc4c(cc3[C@@H](O[C@@H]3O[C@@H]5CO[C@@H](C)O[C@H]5[C@H](O)[C@H]3O)[C@H]3COC(=O)[C@H]23)OCO4)cc(OC)c1O [ETOPOSIDE]
[1]; Liver
  Hepatotoxicity: drug-induced liver injury reported
[2]; Liver
  Hepatotoxicity: drug-induced liver injury reported
[3]; Liver
  Hepatotoxicity: no drug-induced liver injury reported

## CCOC(=O)/C=C(C)/C=C/C=C(C)/C=C/c1c(C)cc(OC)c(C)c1C [ETRETINATE]
[1]
  Hepatotoxicity: drug-induced liver injury reported
[2]
  Hepatotoxicity: no drug-induced liver injury reported
[3]
  Hepatotoxicity: no drug-induced liver injury reported

## Cc1cc(-c2ccc(/N=N/c3ccc4c(S(=O)(=O)[O-])cc(S(=O)(=O)[O-])c(N)c4c3O)c(C)c2)ccc1/N=N/c1ccc2c(S(=O)(=O)[O-])cc(S(=O)(=O)[O-])c(N)c2c1O.[Na+].[Na+].[Na+].[Na+] [EVANS BLUE]
[1]
  Hepatotoxicity: no drug-induced liver injury reported
[2]
  Hepatotoxicity: drug-induced liver injury reported
[3]
  Hepatotoxicity: no drug-induced liver injury reported

## CC1=C(CC(=O)O)c2cc(F)ccc2/C1=C\c1ccc(S(C)(=O)=O)cc1 [EXISULIND]
[1]
  Hepatotoxicity: drug-induced liver injury reported
[2]
  Hepatotoxicity: no drug-induced liver injury reported
[3]
  Hepatotoxicity: no drug-induced liver injury reported

## O=C1[C@H](CC[C@H](O)c2ccc(F)cc2)[C@@H](c2ccc(O)cc2)N1c1ccc(F)cc1 [EZETIMIBE]
[1]
  Hepatotoxicity: drug-induced liver injury reported
[2]
  Hepatotoxicity: drug-induced liver injury reported
[3]
  Hepatotoxicity: drug-induced liver injury reported

## CC(=O)OCC(CCn1cnc2cnc(N)nc21)COC(C)=O [FAMCICLOVIR]
[1]
  Hepatotoxicity: drug-induced liver injury reported
[2]
  Hepatotoxicity: no drug-induced liver injury reported
[3]
  Hepatotoxicity: no drug-induced liver injury reported

## NC(N)=Nc1nc(CSCCC(N)=NS(N)(=O)=O)cs1 [FAMOTIDINE]
[1]; Liver
  Hepatotoxicity: drug-induced liver injury reported
[2]; Liver
  Hepatotoxicity: drug-induced liver injury reported
[3]; Liver
  Hepatotoxicity: no drug-induced liver injury reported

## COc1ccc2cc1Oc1ccc(cc1)C[C@H]1c3cc(c(OC)cc3CCN1C)Oc1c(OC)c(OC)cc3c1[C@H](C2)N(C)CC3 [FANCHININ]
[1]
  Hepatotoxicity: drug-induced liver injury reported
[2]
  Hepatotoxicity: drug-induced liver injury reported
[3]
  Hepatotoxicity: no drug-induced liver injury reported

## O=S(=O)(c1cccc2cnccc12)N1CCCNCC1 [FASUDIL]
[1]
  Hepatotoxicity: drug-induced liver injury reported
[2]
  Hepatotoxicity: drug-induced liver injury reported
[3]
  Hepatotoxicity: no drug-induced liver injury reported

## NC(=O)OCC(COC(N)=O)c1ccccc1 [FELBAMATE]
[1]
  Hepatotoxicity: drug-induced liver injury reported
[2]
  Hepatotoxicity: drug-induced liver injury reported
[3]
  Hepatotoxicity: no drug-induced liver injury reported

## CCOC(=O)C1=C(C)NC(C)=C(C(=O)OC)C1c1cccc(Cl)c1Cl (stereo unspecified) [FELODIPINE]
[1]
  Hepatotoxicity: drug-induced liver injury reported
[2]
  Hepatotoxicity: no drug-induced liver injury reported
[3]
  Hepatotoxicity: no drug-induced liver injury reported

## NCCCC[C@H](NC(=O)[C@@H]1CCCN1C(=O)[C@@H]1CSSC[C@H](N)C(=O)N[C@@H](Cc2ccccc2)C(=O)N[C@@H](Cc2ccccc2)C(=O)N[C@@H](CCC(N)=O)C(=O)N[C@@H](CC(N)=O)C(=O)N1)C(=O)NCC(N)=O [FELYPRESSIN]
[1]
  Hepatotoxicity: no drug-induced liver injury reported
[2]
  Hepatotoxicity: no drug-induced liver injury reported
[3]
  Hepatotoxicity: drug-induced liver injury reported

## CC(C)OC(=O)C(C)(C)Oc1ccc(C(=O)c2ccc(Cl)cc2)cc1 [FENOFIBRATE]
[1]
  Hepatotoxicity: drug-induced liver injury reported
[2]
  Hepatotoxicity: drug-induced liver injury reported
[3]
  Hepatotoxicity: no drug-induced liver injury reported

## CC1=C(/C=C/C(C)=C/C=C/C(C)=C/C(=O)Nc2ccc(O)cc2)C(C)(C)CCC1 [FENRETINIDE]
[1]
  Hepatotoxicity: drug-induced liver injury reported
[2]
  Hepatotoxicity: drug-induced liver injury reported
[3]
  Hepatotoxicity: no drug-induced liver injury reported

## CCCCCCCCc1ccc(CCC(N)(CO)CO)cc1 [FINGOLIMOD]
[1]
  Hepatotoxicity: drug-induced liver injury reported
[2]
  Hepatotoxicity: drug-induced liver injury reported
[3]
  Hepatotoxicity: no drug-induced liver injury reported

## O=C(NCC1CCCCN1)c1cc(OCC(F)(F)F)ccc1OCC(F)(F)F (stereo unspecified) [FLECAINIDE]
[1]
  Hepatotoxicity: drug-induced liver injury reported
[2]
  Hepatotoxicity: no drug-induced liver injury reported
[3]
  Hepatotoxicity: no drug-induced liver injury reported

## Cn1cc([S+](C)[O-])c(=O)c2ccc(F)cc21 (stereo unspecified) [FLOSEQUINAN]
[1]
  Hepatotoxicity: drug-induced liver injury reported
[2]
  Hepatotoxicity: no drug-induced liver injury reported
[3]
  Hepatotoxicity: no drug-induced liver injury reported

## Cc1onc(-c2c(F)cccc2Cl)c1C(=O)N[C@@H]1C(=O)N2[C@@H]1SC(C)(C)[C@@H]2C(=O)O [FLOXACILLIN]
[1]
  Hepatotoxicity: drug-induced liver injury reported
[2]
  Hepatotoxicity: drug-induced liver injury reported
[3]
  Hepatotoxicity: no drug-induced liver injury reported

## O=c1[nH]c(=O)n([C@H]2C[C@H](O)[C@@H](CO)O2)cc1F [FLOXURIDINE]
[1]
  Hepatotoxicity: drug-induced liver injury reported
[2]
  Hepatotoxicity: drug-induced liver injury reported
[3]
  Hepatotoxicity: no drug-induced liver injury reported

## OC(Cn1cncn1)(Cn1cncn1)c1ccc(F)cc1F [FLUCONAZOLE]
[1]; Liver
  Hepatotoxicity: drug-induced liver injury reported
[2]; Liver
  Hepatotoxicity: drug-induced liver injury reported
[3]; Liver
  Hepatotoxicity: no drug-induced liver injury reported

## Nc1nc(=O)[nH]cc1F [FLUCYTOSINE]
[1]
  Hepatotoxicity: no drug-induced liver injury reported
[2]
  Hepatotoxicity: drug-induced liver injury reported
[3]
  Hepatotoxicity: no drug-induced liver injury reported

## O=C(O)c1ccccc1Nc1cccc(C(F)(F)F)c1 [FLUFENAMIC ACID]
[1]
  Hepatotoxicity: drug-induced liver injury reported
[2]
  Hepatotoxicity: drug-induced liver injury reported
[3]
  Hepatotoxicity: no drug-induced liver injury reported

## CCOC(=O)c1ncn2c1CN(C)C(=O)c1cc(F)ccc1-2 [FLUMAZENIL]
[1]
  Hepatotoxicity: drug-induced liver injury reported
[2]
  Hepatotoxicity: no drug-induced liver injury reported
[3]
  Hepatotoxicity: no drug-induced liver injury reported

## CN1C(=O)CN=C(c2ccccc2F)c2cc([N+](=O)[O-])ccc21 [FLUNITRAZEPAM]
[1]
  Hepatotoxicity: no drug-induced liver injury reported
[2]
  Hepatotoxicity: no drug-induced liver injury reported
[3]
  Hepatotoxicity: drug-induced liver injury reported
